Data taken from the NIST ThermoML archive (doi:10.1021/je800110r).

Conditions: 283.15 K, Liquid, Vibrating tube method

CCCCCCCCCC [decane]
Conditions	mass density [kg/m3]
18830 kPa	750.4
18862 kPa	750.3
18886 kPa	750.4
18919 kPa	750.4
18953 kPa	750.3
18975 kPa	750.3
19001 kPa	750.4
19028 kPa	750.5
19063 kPa	750.5
19088 kPa	750.4
19116 kPa	750.6
19142 kPa	750.5
19169 kPa	750.6
19195 kPa	750.6
19222 kPa	750.6
19245 kPa	750.6
19296 kPa	750.6
19437 kPa	750.6
19472 kPa	750.7
19500 kPa	750.8
19524 kPa	750.7
19561 kPa	750.8
19589 kPa	750.8
19627 kPa	750.9
19660 kPa	750.9
19683 kPa	750.9
19715 kPa	750.9
19742 kPa	750.9
19762 kPa	750.9
19786 kPa	750.9
19807 kPa	751
19842 kPa	751
19870 kPa	751
19891 kPa	751
19925 kPa	751
19953 kPa	751
19975 kPa	751
19996 kPa	751
20017 kPa	751
20039 kPa	751.1
20064 kPa	751.2
20082 kPa	751.2
20101 kPa	751.1
20121 kPa	751
20149 kPa	751.1
20174 kPa	751.2
20196 kPa	751.3
20219 kPa	751.1
20248 kPa	751.3
20268 kPa	751.2
20291 kPa	751.3
20310 kPa	751.2
20345 kPa	751.3
20368 kPa	751.2
20387 kPa	751.4
20410 kPa	751.3
20429 kPa	751.3
20462 kPa	751.3
20488 kPa	751.4
20508 kPa	751.3
20558 kPa	751.3
20627 kPa	751.4
20648 kPa	751.6
20677 kPa	751.4
20697 kPa	751.6
20731 kPa	751.6
20762 kPa	751.6
20782 kPa	751.6
20813 kPa	751.6
20841 kPa	751.6
20865 kPa	751.6
20894 kPa	751.6
20922 kPa	751.6
20942 kPa	751.6
20966 kPa	751.5
20994 kPa	751.7
21015 kPa	751.7
21043 kPa	751.8
21074 kPa	751.8
21095 kPa	751.8
21127 kPa	751.8
21151 kPa	751.8
21173 kPa	751.8
21194 kPa	751.8
21211 kPa	751.9
21240 kPa	752
21271 kPa	751.9
21296 kPa	751.8
21321 kPa	751.9
21353 kPa	751.9
21370 kPa	751.9
21403 kPa	751.9
21752 kPa	752.1
21805 kPa	752.2
21889 kPa	752.2
21915 kPa	752.2
21938 kPa	752.3
21972 kPa	752.3
22007 kPa	752.3
22031 kPa	752.3
22058 kPa	752.3
22089 kPa	752.3
22113 kPa	752.4
22147 kPa	752.4
22178 kPa	752.3
22201 kPa	752.4
22236 kPa	752.4
22272 kPa	752.5
22295 kPa	752.5
22335 kPa	752.4
22359 kPa	752.5
22386 kPa	752.6
22411 kPa	752.6
22446 kPa	752.5
22479 kPa	752.6
22503 kPa	752.5
22527 kPa	752.6
22564 kPa	752.6
22597 kPa	752.6
22622 kPa	752.7
22663 kPa	752.6
22697 kPa	752.7
22722 kPa	752.7
22759 kPa	752.7
22793 kPa	752.8
22818 kPa	752.9
22847 kPa	752.9
22881 kPa	752.9
22919 kPa	752.9
23017 kPa	752.9
23052 kPa	752.9
23107 kPa	753
23142 kPa	753
23169 kPa	752.9
23192 kPa	753.1
23212 kPa	753.1
